Columns and labels:
HSA [1] = molecular target: T1, HSA (Homo sapiens, UniProt P02768); assay: Spectrofluorimetric titration (fluorescence quenching) of HSA with the complexes; assay type: binding; conditions: for ΔHb / ΔSb: van't Hoff plot, 300-310 K
Description: The excitation wavelength was set to 285 nm, while the emission spectrum was recorded in the interval from 315 nm to 600 nm. […] solution (phosphate buffer pH = 7.6) with a concentration of 5 × 10^−6 M was titrated (5–10 times) with a complex solutions (5 × 10^−4 M). Before each addition of complexes 1 and 2 to the HSA solutions, the cuvette was thermostated for 2 min for each tested temperature, and then the fluorescence quenching spectra of proteins were recorded. Recordings started 2 min after adding complex 1/complex 2 solutions to reach the desired temperature. The data were analyzed according to the double-log Stern-Volmer (SV) equation: (1) log(I0−IQ/IQ)=logKb+nlog[Q] where Kb and n are the binding constants and the number of binding sites per HSA molecule. The binding constants were determined from the intercept values on the SV diagrams and the double log SV equation (Table 1). These values are further used for van’t Hoff plots, lnKb = f(T^−1), from which the Gibbs free energy, enthalpy, and entropy changes were determined.

HSA [2] = molecular target: T1, HSA; assay: Spin-probing EPR: displacement of 16-DS from preformed HSA/16-DS; assay type: binding; conditions: for Unbound Component Contribution (XUB, %): 50 µM HSA, 250 µM 16-DS, 200 µM complex ([HSA]:[Ru-complex] 1:4), 1.2% v/v DMSO, phosphate buffer pH 7.4, EPR spectral simulation
Description: In order to investigate the nature of the interaction between the two Ru-complexes and human serum albumin (HSA), spin-probing/electron paramagnetic resonance methodology was used additionally. Namely, as HSA can bind up to seven molecules of long-chain fatty acids, and their doxyl derivatives, which are EPR-active compounds, HSA was first incubated with the fivefold concentration of 16-doxyl-stearic acid (16-DS, Sigma-Aldrich), and subsequently the aliquots of the Ru-complexes solutions were added to the HSA/16-DS mixture. For this experiment, HSA was dissolved in the 100 mM phosphate buffer, pH 7.4, and its concentration was 0.2 mM. The ethanol solution of 16-DS was transferred to the bottom of the test tube, and ethanol was dried in the Eppendorf Concentrator plus vacuum centrifuge. After the ethanol completely evaporated, an appropriate amount of HSA solution was added to the tube containing 16-DS. The concentration of the 16-DS in HSA/16-DS solution was 1 mM, i.e., [HSA]:[16-DS] molar ratio was 1:5. This stock solution was incubated until the full binding of 16-DS to HSA was achieved. The incubation involved occasional gentle vortexing and thermostating at 37 °C in a water bath.
In the next step, Ru(II) complexes were dissolved in DMSO and diluted using 100 mM phosphate buffer, pH 7.4. The concentrations of both Ru(II) complexes stock solutions were 266.67 µM. Small volumes of these solutions were added to HSA/16-DS preparation and diluted with the phosphate buffer. Afterward, the samples were incubated for 30 min before the EPR measurement. […]
The samples prepared as previously described were aspirated into the capillary gas-permeable Teflon tubes (Zeus Industries, Inc., Orangeburg, SC, USA) and placed into the resonator cavity of the X-band EPR spectrometer Bruker Elexsys II E500. […] The acquired EPR spectra were analyzed using the Bruker Xepr software and simulated by SimLabel, a graphical user interface software that is an extension of EasySpin [64], the EPR simulation package (the version of EasySpin used was 6.0.6). […]

MDA-MB-231 cells [3] = assay: MTT test; assay type: cell-based, human; conditions: MDA-MB-231, 24 h treatment
Description: (§1) The human breast cancer cell line (MDA-MB-231) and human pancreatic cancer cell line (MIA PaCa-2) were obtained from the American Type Culture Collection (ATCC). The cells were cultured in 25 cm^2 flasks with DMEM supplemented with 100 U/mL penicillin-streptomycin, 10% FBS, at 37 °C with 5% CO2 in a humidified incubator.
(§2) Cells were harvested when they reached 85–90% confluent. 100 µL of cell suspension (15.000 cells per well) was poured into the wells of the 96-well plate and incubated overnight to allow the cells to attach to the well. The cells were treated with 1 or 2 in concentrations ranging from 0.19 to 200 µM. Untreated cells were used as control. After 24 h, 10 µL MTT (5 mg/mL) was added to each well. Cultures were incubated for […] at 37 °C. The reduction process was stopped by adding 100 µL/well of 10% SDS acidified with 1N HCl. Dissolution of the resulting blue color was continued overnight in the incubator at 37 °C. All treatments were done in replicates of three. The absorbance was read at 540 nm on an ELISA reader (RT-6100, Rayto, Shenzhen, China). The ratio of absorbances of treated to untreated living cells was used to measure viability. Cytotoxic activity was recorded as IC50, which is the concentration necessary to reduce the absorbance of treated cells by 50% compared to the control.

MIA PaCa-2 cells [4] = assay: MTT test; assay type: cell-based, human; conditions: MIA PaCa-2, 24 h treatment
Description: as §1, §2

HS-5 cells = assay: MTT test on healthy cells; assay type: cell-based; conditions: same concentrations as for cancer cells, 24 h
Description: as §2

MDA-MB-231 cells [5] = assay: Malondialdehyde and protein carbonyl concentrations in the medium; assay type: cell-based, human; conditions: MDA-MB-231, 24 h, 75 µM complex 1 or 50 µM complex 2, vs untreated cells
Description: (§3) MDA-MB-231 and MIA PaCa-2 cells were treated with 50 µM of complex 2 or 75 µM and 100 µM of complex 1, respectively, for 24 h. Untreated cells were used as control. The supernatants were collected and used for further analyses. Lipid peroxidation was estimated by a spectrophotometric assay based on the absorption maximum of the malondialdehyde (MDA) complex with thiobarbituric acid in an acidic environment and high temperature. 1,1,3,3-Tetramethoxypropane was used as standard. Absorbance was read on the ELISA reader using a 540 nm filter. The concentration was determined using a standard curve. The determination of protein carbonyl (PC) concentration was based on the method of Levin and associates. Absorbance was read on the ELISA reader using a 375 nm filter.

MIA PaCa-2 cells [6] = assay: as above; assay type: cell-based, human; conditions: MIA PaCa-2, 24 h, 100 µM complex 1 or 50 µM complex 2, vs control
Description: as §3

MMP9 [7] = assay: Gelatin gel electrophoresis of supernatants, MMP9 activity, MDA-MB-231; assay type: cell-based, human
Description: (§4) MDA-MB-231 and MIA PaCa-2 cells were treated with 50 µM of complex 2 or 75 µM and 100 µM of complex 1, respectively. The treatments lasted 24 and 48 h. Untreated cells were used as control. The supernatants were collected for further analysis. Electrophoresis in a polyacrylamide gel with an add-on of 0.1% SDS and 0.2% gelatin was used to measure metalloproteinase 2 and 9 activity (MMP2 and MMP9).
(§5) The gels were imaged with a ChemiDoc Imaging System (Bio-Rad Laboratories, Hercules, CA, USA) and estimated by densitometric scanning using the Image Lab (Bio-Rad Laboratories, Inc. Version 6.0.0.25) software tool.

MMP9 [8] = assay: Gelatin gel electrophoresis of supernatants, MMP9 activity, MIA PaCa-2; assay type: cell-based, human
Description: as §4, §5

MMP2 [9] = assay: Gelatin gel electrophoresis of supernatants, MMP2 activity, MDA-MB-231; assay type: cell-based, human; conditions: MDA-MB-231, 75 µM complex 1 or 50 µM complex 2, 24 and 48 h treatments
Description: as §4, §5

MMP2 [10] = assay: Gelatin gel electrophoresis of supernatants, MMP2 activity, MIA PaCa-2; assay type: cell-based, human; conditions: MIA PaCa-2, 100 µM complex 1 or 50 µM complex 2, 24 and 48 h treatments
Description: as §4, §5

MDA-MB-231 cells [11] = assay: Examination of the cell cycle; assay type: cell-based, human; conditions: MDA-MB-231, 24 h, p < 0.01
MIA PaCa-2 cells [12] = assay: Examination of the cell cycle; assay type: cell-based, human; conditions: MIA PaCa-2, 24 h
[13] = Stability in PBS followed by UV-VIS spectroscopy; assay type: physicochemical; conditions: 1 × 10^−4 M in PBS, 0-24 h
Description: Ligand precursor 3,4-dimethylphenylhydrazine hydrochloride (BLDPharm), [{RuCl2(η^6-p-cymene)}2] (Carbolutions), LiOH × H2O (Sigma Aldrich, Darmstadt, Germany), methanol (Carl Roth), diethyl ether (Carl Roth) and 2-propanol (Carl Roth) were obtained commercially and used without further purification. Deuterated solvents, CDCl3 and MeOD, were procured from Deuterosolvents GmbH and used for NMR spectroscopy. NMR spectra of the synthesized complexes, including ^1H (400.23 MHz) and ^13C NMR (100.1 MHz), were recorded using a Bruker Avance™ 400 MHz Spectrometer. Elemental analysis was performed and the Institute of Chemistry, Chemnitz University of Technology (Heraeus VARIO EL oven). The stability of compounds was examined by UV-VIS spectroscopy on a Thermo Scientific UV-VIS Spectrometer (Thermo Fisher Scientific, Waltham, MA, USA) between 800 and 200 nm. For this experiment, 1 × 10^−2 M solutions of complexes in DMSO were prepared and further diluted to 1 × 10^−4 M solutions in PBS. The measurements were repeated for 24 h.

[14] = test system: Bovine Serum Albumin (BSA); conditions: cited from earlier work

T1 sequence (P02768 25-609): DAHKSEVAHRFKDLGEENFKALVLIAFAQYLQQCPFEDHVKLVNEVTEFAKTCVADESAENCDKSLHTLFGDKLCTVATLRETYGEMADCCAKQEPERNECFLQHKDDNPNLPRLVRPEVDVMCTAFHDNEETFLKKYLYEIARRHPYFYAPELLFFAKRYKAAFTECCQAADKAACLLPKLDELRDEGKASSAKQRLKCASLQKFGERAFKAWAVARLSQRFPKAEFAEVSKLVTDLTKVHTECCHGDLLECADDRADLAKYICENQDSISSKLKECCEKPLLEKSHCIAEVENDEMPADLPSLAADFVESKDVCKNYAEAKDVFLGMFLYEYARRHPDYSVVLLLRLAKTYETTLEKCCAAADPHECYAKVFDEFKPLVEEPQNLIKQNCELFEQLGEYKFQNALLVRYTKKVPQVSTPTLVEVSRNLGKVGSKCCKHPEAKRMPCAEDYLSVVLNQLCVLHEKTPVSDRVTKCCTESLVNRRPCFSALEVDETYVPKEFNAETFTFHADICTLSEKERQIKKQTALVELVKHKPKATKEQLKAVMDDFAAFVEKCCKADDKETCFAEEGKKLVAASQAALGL

| Compound | n (number of binding sites) (HSA [1]; 300 K) | ΔGb (HSA [1]; 300 K) [kcal/mol] | n (number of binding sites) (HSA [1]; 305 K) | ΔGb (HSA [1]; 305 K) [kcal/mol] | n (number of binding sites) (HSA [1]; 310 K) | ΔGb (HSA [1]; 310 K) [kcal/mol] | ΔHb (HSA [1]) [kcal/mol] | ΔSb (HSA [1]) [J mol^−1 K^−1] | Unbound Component Contribution (XUB, %) (HSA [2]) [%] | IC50 (MDA-MB-231 cells [3]) [µM] | IC50 (MIA PaCa-2 cells [4]) [µM] | viability of HS-5 cells (HS-5 cells) | MDA concentration in the medium (MDA-MB-231 cells [5]) | PC concentration in the medium (MDA-MB-231 cells [5]) | MDA concentration in the medium (MIA PaCa-2 cells [6]) | PC concentration in the medium (MIA PaCa-2 cells [6]) | MMP2 activity (MMP2 [9]) | MMP2 activity (MMP2 [10]) | number of cells in the G0/G1 phase (MDA-MB-231 cells [11]) | number of cells in the S phase (MDA-MB-231 cells [11]) | also measured |
| --- | --- | --- | --- | --- | --- | --- | --- | --- | --- | --- | --- | --- | --- | --- | --- | --- | --- | --- | --- | --- | --- |
| Dichlorido(η^6-p-cymene)(3,4-dimethylphenylhydrazine-κN)ruthenium(II) [complex 1] | 1.05 | -6.76 | 1.10 | -7.46 | 1.21 | -8.17 | 35.8 | 590 | 0.73 ± 0.02 | 75 | 100 | did not affect the viability | reduces | reduces MDA concentration but not PC | significantly reduced | increased | No changes | No changes | significantly decreased | increased | change in Gibbs binding energy, range over the examined temperatures (HSA [1]; 27-37 °C): −28.3 to −34.2 kJ mol^−1; Ihf/Ilf parameter (amplitude ratio of high-field and low-field peaks) (HSA [2]; [HSA]:[Ru-complex] 1:0.5 to 1:4, qualitative): more pronounced increase; MMP9 activity (MMP9 [7]; MDA-MB-231, 75 µM complex 1, after 48 h, compared to control and 24 h treatment (p < 0.01)): significantly lower; MMP9 activity (MMP9 [8]; MIA PaCa-2, 100 µM complex 1, after 48 h, compared to control and 24 h treatment (p < 0.05)): significantly lower; effect on the cell cycle (MIA PaCa-2 cells [12]): did not affect; time-dependent UV-VIS spectra (stability) [13]: monoexponential decrease in absorbance due to the hydrolysis |
| Cc1ccc(C(C)C)cc1.Cc1ccc(C(C)C)cc1.Cc1ccc(NN)cc1C.[Cl-].[Cl][Ru].[Cl][Ru][Cl] [complex 2, Chlorido(μ-chlorido)(η^6-p-cymene)(μ-3,4-dimethylphenylhydrazine-κ^2N,N′)ruthenium(II)-dimer chloride] | 1.00 | -6.12 | 1.03 | -6.55 | 1.09 | -6.96 | 18.9 | 348 | 0.71 ± 0.02 | 50 | 50 | did not affect the viability | increased | decreased | significantly reduced | decreased | No changes | No changes | significantly decreased | increased | MMP9 activity (MMP9 [7]; MDA-MB-231, 50 µM complex 2, 24 and 48 h treatments): did not affect; MMP9 activity (MMP9 [8]; MIA PaCa-2, 50 µM complex 2, 24 and 48 h treatments): did not affect; effect on the cell cycle (MIA PaCa-2 cells [12]): did not affect; time-dependent UV-VIS spectra (stability) [13]: gradual increase in absorbance |
| Cc1ccc(C(C)C)cc1.O=[N+]([O-])c1cccc([NH+]2[NH2+][Ru-]2[Cl])c1 (stereo not drawn) [[RuCl(η^6-p-cymene)(3-DNPH)], chlorido(η^6-p-cymene)(3-nitrophenylhydrazine-k^2N,N’)ruthenium(II)] |  |  |  |  |  |  |  |  |  |  |  |  |  |  |  |  |  |  |  |  | sign of the change in enthalpy and entropy of binding [14]: positive values |

Source: paper PMC11940238, “Ru(II) Complexes with 3,4-Dimethylphenylhydrazine: Exploring In Vitro Anticancer Activity and Protein Affinities” (Biomolecules, 2025)
